Measured values as given in PubChem BioAssay (NCI).
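Values below derive from 48-hour exposures of cells grown in 96-well plates, with endpoints linearly interpolated between the two concentrations bracketing the appropriate inhibition level. GI50 marks 50% less growth. TGI is the concentration that stops growth completely.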

Columns and labels:
Test in all cases: growth of human tumour cells (NCI), 48 h
786-0 renal = test system: 786-0 renal
A498 renal = test system: A498 renal
A549 NSCLC = test system: A549 NSCLC
ACHN renal = test system: ACHN renal
BT-549 breast = test system: BT-549 breast
CAKI-1 renal = test system: CAKI-1 renal
CCRF-CEM leukemia = test system: CCRF-CEM leukemia
COLO 205 colon = test system: COLO 205 colon
DU-145 prostate = test system: DU-145 prostate
EKVX NSCLC = test system: EKVX NSCLC
HCC-2998 colon = test system: HCC-2998 colon
HCT-116 colon = test system: HCT-116 colon
HCT-15 colon = test system: HCT-15 colon
HL-60(TB) leukemia = test system: HL-60(TB) leukemia
HOP-62 NSCLC = test system: HOP-62 NSCLC
HOP-92 NSCLC = test system: HOP-92 NSCLC
HS 578T breast = test system: HS 578T breast
HT29 colon = test system: HT29 colon
IGROV1 ovarian = test system: IGROV1 ovarian
K-562 leukemia = test system: K-562 leukemia
KM12 colon = test system: KM12 colon
LOX IMVI melanoma = test system: LOX IMVI melanoma
M14 melanoma = test system: M14 melanoma
MALME-3M melanoma = test system: MALME-3M melanoma
MCF7 breast = test system: MCF7 breast
MDA-MB-231 breast = test system: MDA-MB-231 breast
MDA-MB-435 = test system: MDA-MB-435
MDA-MB-468 breast = test system: MDA-MB-468 breast
MOLT-4 leukemia = test system: MOLT-4 leukemia
NCI-H226 lung = test system: NCI-H226 lung
NCI-H23 lung = test system: NCI-H23 lung
NCI-H460 lung = test system: NCI-H460 lung
NCI-H522 lung = test system: NCI-H522 lung
NCI/ADR-RES ovarian = test system: NCI/ADR-RES ovarian
OVCAR-3 ovarian = test system: OVCAR-3 ovarian
OVCAR-4 ovarian = test system: OVCAR-4 ovarian
OVCAR-5 ovarian = test system: OVCAR-5 ovarian
OVCAR-8 ovarian = test system: OVCAR-8 ovarian
PC-3 prostate = test system: PC-3 prostate
RPMI-8226 leukemia = test system: RPMI-8226 leukemia
RXF 393 renal = test system: RXF 393 renal
SF-268 CNS = test system: SF-268 CNS
SF-295 CNS = test system: SF-295 CNS
SF-539 CNS = test system: SF-539 CNS
SK-MEL-2 melanoma = test system: SK-MEL-2 melanoma
SK-MEL-28 melanoma = test system: SK-MEL-28 melanoma
SK-MEL-5 melanoma = test system: SK-MEL-5 melanoma
SK-OV-3 ovarian = test system: SK-OV-3 ovarian
SN12C renal = test system: SN12C renal
SNB-19 CNS = test system: SNB-19 CNS
SNB-75 CNS = test system: SNB-75 CNS
SW-620 colon = test system: SW-620 colon
T-47D breast = test system: T-47D breast
TK-10 renal = test system: TK-10 renal
U251 CNS = test system: U251 CNS
UACC-257 melanoma = test system: UACC-257 melanoma
UACC-62 melanoma = test system: UACC-62 melanoma
UO-31 renal = test system: UO-31 renal

CN(C)CCCNC(=O)c1cc(NC(=O)c2cc(NC(=O)c3ccc(C#Cc4ccccc4)cc3)cn2C)cn1C was tested, and the GI50 (786-0 renal) was 2.65 µM, the TGI (786-0 renal) was 4.9 µM and the GI50 (A498 renal) was 3 µM. For the same molecule, the TGI (A498 renal) was 8.96 µM, the GI50 (A549 NSCLC) was 2.56 µM and the TGI (A549 NSCLC) was 5.38 µM. For the same molecule, the GI50 (ACHN renal) was 2.74 µM, the TGI (ACHN renal) was 6 µM and the GI50 (BT-549 breast) was 1.79 µM. For the same molecule, the TGI (BT-549 breast) was 3.94 µM, the GI50 (CAKI-1 renal) was 2.85 µM and the TGI (CAKI-1 renal) was 7.97 µM. For the same molecule, the GI50 (CCRF-CEM leukemia) was 1.66 µM, the TGI (CCRF-CEM leukemia) was 6.46 µM and the GI50 (COLO 205 colon) was 3.17 µM. The TGI (COLO 205 colon) was 5.82 µM, the GI50 (DU-145 prostate) was 2.55 µM and the TGI (DU-145 prostate) was 5.18 µM. It also gave a GI50 (EKVX NSCLC) of 2.49 µM, a TGI (EKVX NSCLC) of 5.18 µM and a GI50 (HCC-2998 colon) of 2.34 µM. For the same molecule, the TGI (HCC-2998 colon) was 4.42 µM, the GI50 (HCT-116 colon) was 2.1 µM and the TGI (HCT-116 colon) was 4.46 µM. The GI50 (HCT-15 colon) was 2.23 µM, the TGI (HCT-15 colon) was 4.48 µM and the GI50 (HL-60(TB) leukemia) was 2.62 µM. For the same molecule, the TGI (HL-60(TB) leukemia) was 7.14 µM, the GI50 (HOP-62 NSCLC) was 2.85 µM and the TGI (HOP-62 NSCLC) was 5.42 µM. The GI50 (HOP-92 NSCLC) was 0.611 µM, the TGI (HOP-92 NSCLC) was 3.47 µM and the GI50 (HS 578T breast) was 3.7 µM. For the same molecule, the TGI (HS 578T breast) was 10 µM, the GI50 (HT29 colon) was 2.56 µM and the TGI (HT29 colon) was 6.64 µM. For the same molecule, the GI50 (IGROV1 ovarian) was 4.95 µM, the TGI (IGROV1 ovarian) was greater than 15.3 µM and the GI50 (K-562 leukemia) was 2.74 µM. It also gave a TGI (K-562 leukemia) of 7.99 µM, a GI50 (KM12 colon) of 2.93 µM and a TGI (KM12 colon) of 6.81 µM. For the same molecule, the GI50 (LOX IMVI melanoma) was 2.24 µM, the TGI (LOX IMVI melanoma) was 4.31 µM and the GI50 (M14 melanoma) was 2.26 µM. The TGI (M14 melanoma) was 4.54 µM, the GI50 (MALME-3M melanoma) was 2.11 µM and the TGI (MALME-3M melanoma) was 4.22 µM. It also gave a GI50 (MCF7 breast) of 0.58 µM, a TGI (MCF7 breast) of 2.38 µM and a GI50 (MDA-MB-231 breast) of 2.84 µM. The TGI (MDA-MB-231 breast) was 5.03 µM, the GI50 (MDA-MB-435) was 2.21 µM and the TGI (MDA-MB-435) was 4.39 µM. It also gave a GI50 (MDA-MB-468 breast) of 2.34 µM, a TGI (MDA-MB-468 breast) of 4.43 µM and a GI50 (MOLT-4 leukemia) of 2.4 µM. The TGI (MOLT-4 leukemia) was 7.24 µM, the GI50 (NCI-H226 lung) was 2.28 µM and the TGI (NCI-H226 lung) was 4.79 µM. For the same molecule, the GI50 (NCI-H23 lung) was 2.76 µM, the TGI (NCI-H23 lung) was 5.37 µM and the GI50 (NCI-H460 lung) was 2.76 µM. It also gave a TGI (NCI-H460 lung) of 6.04 µM, a GI50 (NCI-H522 lung) of 2.56 µM and a TGI (NCI-H522 lung) of 5.16 µM. For the same molecule, the GI50 (NCI/ADR-RES ovarian) was 2.85 µM, the TGI (NCI/ADR-RES ovarian) was 7.02 µM and the GI50 (OVCAR-3 ovarian) was 1.83 µM. It also gave a TGI (OVCAR-3 ovarian) of 4.13 µM, a GI50 (OVCAR-4 ovarian) of 4.21 µM and a TGI (OVCAR-4 ovarian) greater than 15.3 µM. It also gave a GI50 (OVCAR-5 ovarian) of 3.17 µM, a TGI (OVCAR-5 ovarian) of 7.43 µM and a GI50 (OVCAR-8 ovarian) of 2.57 µM. For the same molecule, the TGI (OVCAR-8 ovarian) was 6.63 µM, the GI50 (PC-3 prostate) was 2.4 µM and the TGI (PC-3 prostate) was 5.38 µM. The GI50 (RPMI-8226 leukemia) was 1.76 µM, the TGI (RPMI-8226 leukemia) was 5.89 µM and the GI50 (RXF 393 renal) was 1.61 µM. The TGI (RXF 393 renal) was 3.84 µM, the GI50 (SF-268 CNS) was 2.56 µM and the TGI (SF-268 CNS) was 5.65 µM. The GI50 (SF-295 CNS) was 2.53 µM, the TGI (SF-295 CNS) was 4.97 µM and the GI50 (SF-539 CNS) was 2.48 µM. For the same molecule, the TGI (SF-539 CNS) was 4.7 µM, the GI50 (SK-MEL-2 melanoma) was 2.91 µM and the TGI (SK-MEL-2 melanoma) was 5.98 µM. The GI50 (SK-MEL-28 melanoma) was 2.4 µM, the TGI (SK-MEL-28 melanoma) was 4.47 µM and the GI50 (SK-MEL-5 melanoma) was 2.34 µM. It also gave a TGI (SK-MEL-5 melanoma) of 4.37 µM, a GI50 (SK-OV-3 ovarian) of 5.58 µM and a TGI (SK-OV-3 ovarian) greater than 15.3 µM. The GI50 (SN12C renal) was 2.03 µM, the TGI (SN12C renal) was 4.09 µM and the GI50 (SNB-19 CNS) was 2.84 µM. The TGI (SNB-19 CNS) was 5.01 µM, the GI50 (SNB-75 CNS) was 2.48 µM and the TGI (SNB-75 CNS) was greater than 15.3 µM. The GI50 (SW-620 colon) was 2.87 µM, the TGI (SW-620 colon) was 6.02 µM and the GI50 (T-47D breast) was 2.07 µM. For the same molecule, the TGI (T-47D breast) was 4.94 µM, the GI50 (TK-10 renal) was 3.33 µM and the TGI (TK-10 renal) was 9.03 µM. It also gave a GI50 (U251 CNS) of 2.45 µM, a TGI (U251 CNS) of 5.93 µM and a GI50 (UACC-257 melanoma) of 2.12 µM. It also gave a TGI (UACC-257 melanoma) of 4.77 µM, a GI50 (UACC-62 melanoma) of 1.93 µM and a TGI (UACC-62 melanoma) of 4.07 µM. It also gave a GI50 (UO-31 renal) of 3.08 µM and a TGI (UO-31 renal) of 12.2 µM.
